Values of other authors as cited in patent US20030069214A1, “Process for preparing saponin compounds” (priority 2001, published 2003).

Tests used:
[1] = tested on: broad spectrum of malignant tumor cells; settings: Bioorg. Med. Chem. Lett., 7, 633, 1997
[2] = tested on: normal cells; settings: normal cells in vitro; Bioorg. Med. Chem. Lett., 7, 633, 1997

## COc1ccc(C(=O)O[C@H]2[C@H](O[C@@H]3[C@@H](OC(C)=O)[C@H](O[C@H]4C[C@H]5[C@@H]6CC=C7C[C@@H](O)CC[C@]7(C)[C@H]6CC[C@]5(C)[C@@]4(O)[C@H](C)C(=O)CCC(C)C)OC[C@@H]3O)OC[C@@H](O)[C@@H]2O)cc1 [OSW-1]
[1]
  toxicity against malignant tumor cells: highly toxic
[2]
  toxicity to normal cells: little toxicity
